In ChEMBL document CHEMBL2440060, “Identification of a Novel and Selective Series of Itk Inhibitors via a Template-Hopping Strategy” (ACS Med Chem Lett, 2013):

Assays:
[1] = molecular target: T1, Aurora kinase B (Homo sapiens, UniProt Q96GD4); experiment: Inhibition of Aurora-B (unknown origin) using 5FAM-PKAtide as substrate after 120 mins
[2] = molecular target: T2, Tyrosine-protein kinase Lck (Homo sapiens, UniProt P06239); experiment: Inhibition of LCK (unknown origin) using tamra-p34cdc-derived peptide as substrate after 30 mins
T2 sequence (P06239 whole entry): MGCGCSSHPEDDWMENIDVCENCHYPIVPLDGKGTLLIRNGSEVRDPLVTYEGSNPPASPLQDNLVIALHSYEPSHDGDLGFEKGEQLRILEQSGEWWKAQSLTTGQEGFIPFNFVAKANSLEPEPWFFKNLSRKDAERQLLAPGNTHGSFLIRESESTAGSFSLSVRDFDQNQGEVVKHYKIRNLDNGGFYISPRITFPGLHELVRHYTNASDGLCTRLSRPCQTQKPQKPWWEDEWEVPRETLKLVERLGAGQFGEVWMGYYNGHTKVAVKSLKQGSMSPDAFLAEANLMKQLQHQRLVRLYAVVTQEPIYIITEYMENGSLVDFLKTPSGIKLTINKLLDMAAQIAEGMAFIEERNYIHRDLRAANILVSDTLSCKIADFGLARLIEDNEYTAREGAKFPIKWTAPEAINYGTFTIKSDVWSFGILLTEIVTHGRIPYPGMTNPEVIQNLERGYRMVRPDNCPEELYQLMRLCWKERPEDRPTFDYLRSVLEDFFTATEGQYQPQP

[3] = molecular target: T3, Tyrosine-protein kinase ITK/TSK (Homo sapiens, UniProt Q08881); experiment: Inhibition of recombinant human FLAG-tagged ITK using biotinylated GST-SAM68 as substrate after 30 mins
T3 sequence (Q08881 whole entry): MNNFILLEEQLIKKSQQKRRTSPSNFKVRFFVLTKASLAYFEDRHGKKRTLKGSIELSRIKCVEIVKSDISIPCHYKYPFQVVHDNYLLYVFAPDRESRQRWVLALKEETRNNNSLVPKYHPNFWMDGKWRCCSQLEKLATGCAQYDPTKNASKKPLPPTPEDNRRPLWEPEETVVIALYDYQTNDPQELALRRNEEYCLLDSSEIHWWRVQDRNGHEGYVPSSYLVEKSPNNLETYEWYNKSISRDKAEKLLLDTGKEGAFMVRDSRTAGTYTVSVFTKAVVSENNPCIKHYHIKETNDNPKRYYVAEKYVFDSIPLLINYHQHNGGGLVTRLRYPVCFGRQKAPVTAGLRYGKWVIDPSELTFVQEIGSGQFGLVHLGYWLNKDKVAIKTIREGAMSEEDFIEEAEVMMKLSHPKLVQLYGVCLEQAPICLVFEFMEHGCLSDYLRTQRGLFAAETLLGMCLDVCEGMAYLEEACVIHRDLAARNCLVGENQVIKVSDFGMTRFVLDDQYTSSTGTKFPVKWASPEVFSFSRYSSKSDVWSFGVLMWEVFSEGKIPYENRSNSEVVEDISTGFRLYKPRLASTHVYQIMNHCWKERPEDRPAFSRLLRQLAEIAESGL

[4] = tested on: PBMC; experiment: Inhibition of cytostim-induced IFNgamma production in human PBMC treated 1 hr before cytostim stimulation measured after 18 hrs by MSD assay; format: functional, cell-based
[5] = molecular target: T1, Aurora kinase B; experiment: Inhibition of Aurora-B (unknown origin)
[6] = molecular target: T2, Tyrosine-protein kinase Lck; experiment: Inhibition of LCK (unknown origin)
[7] = molecular target: T3, Tyrosine-protein kinase ITK/TSK; experiment: Inhibition of ITK (unknown origin)
[8] = molecular target: Leucine-rich repeat serine/threonine-protein kinase 2 (Homo sapiens, UniProt Q5S007); experiment: Inhibition of LRRK2 (unknown origin)
[9] = molecular target: Epidermal growth factor receptor (Homo sapiens, UniProt P00533); experiment: Inhibition of EGFR (unknown origin)
[10] = molecular target: Tyrosine-protein kinase BTK (Homo sapiens, UniProt Q06187); experiment: Inhibition of Btk (unknown origin)
Sequence of Tyrosine-protein kinase BTK (Q06187 whole entry): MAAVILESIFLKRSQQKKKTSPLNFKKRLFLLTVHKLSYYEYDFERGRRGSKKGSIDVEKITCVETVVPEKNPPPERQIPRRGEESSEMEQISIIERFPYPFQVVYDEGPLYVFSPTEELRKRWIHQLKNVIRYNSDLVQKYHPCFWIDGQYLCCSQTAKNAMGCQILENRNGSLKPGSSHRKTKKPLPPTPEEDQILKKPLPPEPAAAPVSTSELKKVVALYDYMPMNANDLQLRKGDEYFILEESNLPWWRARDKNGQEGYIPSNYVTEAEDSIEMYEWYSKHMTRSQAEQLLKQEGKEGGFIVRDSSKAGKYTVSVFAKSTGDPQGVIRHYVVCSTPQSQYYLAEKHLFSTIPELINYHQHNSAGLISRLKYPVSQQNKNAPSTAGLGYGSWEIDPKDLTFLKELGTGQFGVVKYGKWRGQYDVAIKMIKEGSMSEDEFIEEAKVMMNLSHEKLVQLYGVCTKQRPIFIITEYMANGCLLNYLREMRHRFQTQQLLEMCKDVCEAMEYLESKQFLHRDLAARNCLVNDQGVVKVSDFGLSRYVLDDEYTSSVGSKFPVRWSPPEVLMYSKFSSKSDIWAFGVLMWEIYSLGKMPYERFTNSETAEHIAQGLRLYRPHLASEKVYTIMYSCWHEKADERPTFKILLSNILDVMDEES

[11] = molecular target: T4, Tyrosine-protein kinase Tec (Homo sapiens, UniProt P42680); experiment: Inhibition of Tec (unknown origin)
T4 sequence (P42680 whole entry): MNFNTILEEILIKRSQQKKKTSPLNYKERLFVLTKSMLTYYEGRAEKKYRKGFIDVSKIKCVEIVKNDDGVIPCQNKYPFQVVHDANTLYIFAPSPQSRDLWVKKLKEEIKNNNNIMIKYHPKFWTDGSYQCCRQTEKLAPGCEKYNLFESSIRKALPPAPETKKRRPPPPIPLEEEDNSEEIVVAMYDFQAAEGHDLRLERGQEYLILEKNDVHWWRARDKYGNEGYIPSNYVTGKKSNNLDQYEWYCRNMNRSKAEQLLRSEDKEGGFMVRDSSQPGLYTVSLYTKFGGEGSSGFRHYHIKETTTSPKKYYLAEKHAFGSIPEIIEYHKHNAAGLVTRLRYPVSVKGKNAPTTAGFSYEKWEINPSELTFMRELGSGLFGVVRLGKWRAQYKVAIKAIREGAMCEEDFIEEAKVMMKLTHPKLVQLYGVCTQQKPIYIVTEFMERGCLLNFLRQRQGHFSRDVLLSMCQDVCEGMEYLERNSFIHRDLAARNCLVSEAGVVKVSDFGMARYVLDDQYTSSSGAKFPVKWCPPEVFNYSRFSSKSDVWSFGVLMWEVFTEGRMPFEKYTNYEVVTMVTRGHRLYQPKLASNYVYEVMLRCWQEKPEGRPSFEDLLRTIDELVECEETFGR

[12] = molecular target: Insulin receptor (Homo sapiens, UniProt P06213); experiment: Inhibition of IR (unknown origin)
Sequence of Insulin receptor (P06213 28-758 limits assumed): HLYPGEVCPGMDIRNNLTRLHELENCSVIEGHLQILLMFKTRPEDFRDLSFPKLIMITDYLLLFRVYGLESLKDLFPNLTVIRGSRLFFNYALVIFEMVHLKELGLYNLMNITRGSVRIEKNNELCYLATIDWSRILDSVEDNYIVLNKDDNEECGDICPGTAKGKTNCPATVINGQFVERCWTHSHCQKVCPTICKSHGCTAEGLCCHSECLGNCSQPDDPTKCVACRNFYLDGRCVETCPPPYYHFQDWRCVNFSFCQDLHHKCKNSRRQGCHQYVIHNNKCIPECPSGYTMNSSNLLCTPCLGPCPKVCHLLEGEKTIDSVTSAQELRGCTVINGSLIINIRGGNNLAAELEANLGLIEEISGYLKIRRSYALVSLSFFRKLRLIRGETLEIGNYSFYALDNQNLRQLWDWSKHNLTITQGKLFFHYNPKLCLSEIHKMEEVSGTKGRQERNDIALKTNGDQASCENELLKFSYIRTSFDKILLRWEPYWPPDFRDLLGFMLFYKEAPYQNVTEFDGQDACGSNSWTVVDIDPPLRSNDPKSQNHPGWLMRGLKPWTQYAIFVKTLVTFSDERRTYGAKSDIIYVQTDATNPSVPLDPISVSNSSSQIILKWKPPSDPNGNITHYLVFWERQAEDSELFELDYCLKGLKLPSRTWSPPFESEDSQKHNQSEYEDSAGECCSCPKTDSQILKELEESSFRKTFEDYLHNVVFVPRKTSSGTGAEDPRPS
Sequence of Insulin receptor (P06213 763-1382 limits assumed): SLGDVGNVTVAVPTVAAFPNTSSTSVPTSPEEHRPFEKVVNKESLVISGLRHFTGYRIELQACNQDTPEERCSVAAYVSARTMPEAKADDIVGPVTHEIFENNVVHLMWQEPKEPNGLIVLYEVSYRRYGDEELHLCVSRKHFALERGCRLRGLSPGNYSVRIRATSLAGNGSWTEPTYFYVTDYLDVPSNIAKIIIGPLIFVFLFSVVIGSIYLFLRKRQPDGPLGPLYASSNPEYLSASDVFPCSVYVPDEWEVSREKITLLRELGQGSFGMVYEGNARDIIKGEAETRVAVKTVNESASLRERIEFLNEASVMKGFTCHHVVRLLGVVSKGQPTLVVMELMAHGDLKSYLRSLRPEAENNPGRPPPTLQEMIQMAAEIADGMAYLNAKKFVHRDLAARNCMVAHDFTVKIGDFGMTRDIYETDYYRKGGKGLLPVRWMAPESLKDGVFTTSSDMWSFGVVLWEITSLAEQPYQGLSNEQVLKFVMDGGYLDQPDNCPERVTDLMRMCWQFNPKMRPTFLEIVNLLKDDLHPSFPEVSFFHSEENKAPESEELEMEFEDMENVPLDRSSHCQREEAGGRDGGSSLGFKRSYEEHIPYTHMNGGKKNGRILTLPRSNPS

[13] = molecular target: Calcium/calmodulin-dependent protein kinase kinase 2 (Homo sapiens, UniProt Q96RR4); experiment: Inhibition of CAMKK2 (unknown origin)
Sequence of Calcium/calmodulin-dependent protein kinase kinase 2 (Q96RR4 whole entry): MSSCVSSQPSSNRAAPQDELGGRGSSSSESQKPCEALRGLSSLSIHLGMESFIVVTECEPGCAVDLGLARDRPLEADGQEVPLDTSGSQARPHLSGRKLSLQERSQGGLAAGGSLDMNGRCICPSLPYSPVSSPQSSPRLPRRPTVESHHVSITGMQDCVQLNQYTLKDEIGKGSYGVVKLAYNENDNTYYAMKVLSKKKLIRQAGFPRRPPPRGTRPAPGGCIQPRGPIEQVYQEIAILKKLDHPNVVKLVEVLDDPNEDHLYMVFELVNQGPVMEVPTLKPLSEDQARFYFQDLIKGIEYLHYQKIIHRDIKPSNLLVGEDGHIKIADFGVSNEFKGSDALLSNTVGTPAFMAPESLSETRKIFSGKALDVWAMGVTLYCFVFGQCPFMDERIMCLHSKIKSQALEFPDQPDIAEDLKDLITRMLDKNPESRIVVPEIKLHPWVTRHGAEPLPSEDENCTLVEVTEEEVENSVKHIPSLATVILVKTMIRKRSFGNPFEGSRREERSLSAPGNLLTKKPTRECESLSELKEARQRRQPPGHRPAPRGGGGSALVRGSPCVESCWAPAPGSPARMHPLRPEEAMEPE

[14] = molecular target: T5, Cytoplasmic tyrosine-protein kinase BMX (Homo sapiens, UniProt P51813); experiment: Inhibition of Bmx (unknown origin)
T5 sequence (P51813 whole entry): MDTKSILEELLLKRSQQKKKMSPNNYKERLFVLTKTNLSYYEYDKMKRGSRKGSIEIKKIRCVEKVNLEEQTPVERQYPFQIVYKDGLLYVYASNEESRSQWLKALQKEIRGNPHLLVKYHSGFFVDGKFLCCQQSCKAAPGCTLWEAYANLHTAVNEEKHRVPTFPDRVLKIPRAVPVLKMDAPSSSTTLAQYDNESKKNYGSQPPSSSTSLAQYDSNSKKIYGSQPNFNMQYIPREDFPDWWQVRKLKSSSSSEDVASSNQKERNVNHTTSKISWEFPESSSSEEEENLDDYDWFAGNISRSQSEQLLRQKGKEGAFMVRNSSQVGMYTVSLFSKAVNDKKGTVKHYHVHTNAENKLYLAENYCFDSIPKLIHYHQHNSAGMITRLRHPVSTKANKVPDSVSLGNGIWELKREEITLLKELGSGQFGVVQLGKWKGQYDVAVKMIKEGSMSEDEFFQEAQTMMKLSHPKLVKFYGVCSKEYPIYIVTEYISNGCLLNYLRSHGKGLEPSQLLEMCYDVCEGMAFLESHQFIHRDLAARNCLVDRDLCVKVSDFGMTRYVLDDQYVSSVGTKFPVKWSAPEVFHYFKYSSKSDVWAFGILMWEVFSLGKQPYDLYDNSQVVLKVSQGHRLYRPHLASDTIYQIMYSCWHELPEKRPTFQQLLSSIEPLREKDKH

[15] = molecular target: T6, Tyrosine-protein kinase TXK (Homo sapiens, UniProt P42681); experiment: Inhibition of TXK (unknown origin)
T6 sequence (P42681 whole entry): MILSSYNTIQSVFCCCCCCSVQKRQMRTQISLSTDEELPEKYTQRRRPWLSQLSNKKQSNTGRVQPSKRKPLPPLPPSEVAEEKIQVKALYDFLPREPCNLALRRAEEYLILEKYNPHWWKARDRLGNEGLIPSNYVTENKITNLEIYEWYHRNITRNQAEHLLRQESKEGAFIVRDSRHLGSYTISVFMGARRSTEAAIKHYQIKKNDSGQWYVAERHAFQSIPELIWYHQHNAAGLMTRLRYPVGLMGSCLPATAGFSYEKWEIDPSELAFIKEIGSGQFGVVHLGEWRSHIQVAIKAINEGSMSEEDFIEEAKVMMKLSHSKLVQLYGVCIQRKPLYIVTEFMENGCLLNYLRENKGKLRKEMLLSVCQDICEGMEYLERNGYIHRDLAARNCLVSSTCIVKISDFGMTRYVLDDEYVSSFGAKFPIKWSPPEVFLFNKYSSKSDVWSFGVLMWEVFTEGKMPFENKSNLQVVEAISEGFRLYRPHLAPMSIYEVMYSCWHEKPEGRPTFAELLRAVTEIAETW

[16] = molecular target: Proto-oncogene tyrosine-protein kinase Src (Homo sapiens, UniProt P12931); experiment: Inhibition of Src (unknown origin)
Sequence of Proto-oncogene tyrosine-protein kinase Src (P12931 2-536 limits assumed): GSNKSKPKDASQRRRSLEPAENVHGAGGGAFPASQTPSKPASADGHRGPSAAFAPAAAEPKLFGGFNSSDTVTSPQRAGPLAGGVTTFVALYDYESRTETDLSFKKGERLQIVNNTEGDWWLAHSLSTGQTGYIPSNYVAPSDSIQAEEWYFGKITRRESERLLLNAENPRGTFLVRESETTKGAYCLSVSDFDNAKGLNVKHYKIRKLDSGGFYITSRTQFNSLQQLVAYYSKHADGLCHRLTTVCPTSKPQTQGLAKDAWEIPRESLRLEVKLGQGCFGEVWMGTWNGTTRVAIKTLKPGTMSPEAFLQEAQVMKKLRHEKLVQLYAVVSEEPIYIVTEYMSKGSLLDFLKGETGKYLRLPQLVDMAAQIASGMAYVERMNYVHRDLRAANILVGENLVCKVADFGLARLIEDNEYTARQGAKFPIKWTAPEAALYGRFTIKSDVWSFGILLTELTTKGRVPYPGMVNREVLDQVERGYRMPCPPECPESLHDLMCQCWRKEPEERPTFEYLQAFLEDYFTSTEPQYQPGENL

[17] = molecular target: T7, Interleukin-1 receptor-associated kinase 4 (Homo sapiens, UniProt Q9NWZ3); experiment: Inhibition of IRAK4 (unknown origin)
T7 sequence (Q9NWZ3 whole entry): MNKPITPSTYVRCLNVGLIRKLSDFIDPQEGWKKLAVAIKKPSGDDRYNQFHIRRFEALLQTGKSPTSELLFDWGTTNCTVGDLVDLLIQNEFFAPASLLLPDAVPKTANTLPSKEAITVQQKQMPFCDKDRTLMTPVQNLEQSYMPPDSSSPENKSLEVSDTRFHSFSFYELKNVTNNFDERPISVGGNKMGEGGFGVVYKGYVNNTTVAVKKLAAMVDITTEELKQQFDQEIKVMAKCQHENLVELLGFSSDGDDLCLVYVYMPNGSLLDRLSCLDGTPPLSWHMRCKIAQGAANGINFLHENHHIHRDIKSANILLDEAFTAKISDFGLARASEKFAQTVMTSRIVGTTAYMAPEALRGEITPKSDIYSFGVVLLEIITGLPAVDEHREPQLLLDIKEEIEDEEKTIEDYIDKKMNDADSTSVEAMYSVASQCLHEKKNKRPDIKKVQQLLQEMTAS

T1 sequence (Q96GD4 whole entry): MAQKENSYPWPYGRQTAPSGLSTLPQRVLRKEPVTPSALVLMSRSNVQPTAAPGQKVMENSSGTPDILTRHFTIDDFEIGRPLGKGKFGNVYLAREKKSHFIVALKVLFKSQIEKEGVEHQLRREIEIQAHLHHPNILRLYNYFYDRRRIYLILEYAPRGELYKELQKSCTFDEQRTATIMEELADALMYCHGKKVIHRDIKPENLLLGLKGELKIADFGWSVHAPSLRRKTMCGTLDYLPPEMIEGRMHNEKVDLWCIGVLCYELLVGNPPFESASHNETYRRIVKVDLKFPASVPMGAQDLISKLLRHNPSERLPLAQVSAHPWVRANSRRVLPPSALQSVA

| SMILES | Ki [1] [nM] | Ki [2] [nM] | Ki [3] [nM] | also measured |
| --- | --- | --- | --- | --- |
| O[C@H]1CC[C@H](Nc2nc(Nc3ncc(Cc4ccccc4)s3)cc(C(F)(F)c3ccc(F)cc3)n2)CC1 | 5.01 | 100 | 63.1 |  |
| COc1ccc2nc(Nc3cc(C(F)(F)c4ccc(F)cc4)nc(N[C@H]4CC[C@H](O)CC4)n3)sc2c1 | 2510 | 251 | 20 |  |
| NC(=O)[C@@H]1CCCN1c1nc(Nc2ncc(Cc3ccccc3)s2)cc(C(F)(F)c2ccc(F)cc2)n1 | 3160 | 316 | > 10000 |  |
| Cc1cc2nc(Nc3cc(Cc4ccccc4)nc(N[C@H]4CC[C@H](O)CC4)n3)sc2cc1C | 20000 | > 25100 | > 10000 |  |
| O[C@H]1CC[C@H](Nc2nc(Cc3ccccc3)cc(Nc3nc4ccc(C(F)(F)F)cc4s3)n2)CC1 | 251 | 50.1 | 12.6 |  |
| Cc1ccc2nc(Nc3cc(Cc4ccccc4)nc(N[C@H]4CC[C@H](O)CC4)n3)sc2c1 | 316 | 251 | 0.398 |  |
| O[C@H]1CC[C@H](Nc2nc(Nc3cc4ccccc4cn3)cc(C(F)(F)c3ccc(F)cc3)n2)CC1 | 79.4 | 100 | 6.31 |  |
| COc1ccc2nc(Nc3cc(Cc4ccccc4)nc(N[C@H]4CC[C@H](O)CC4)n3)sc2c1 | 501 | 126 | 3.98 | IC50 [4]: 25.1 nM |
| COc1ccc2nc(Nc3cc(Cc4ccccc4)nc(N[C@H]4CC[C@H](O)CC4)n3)sc2n1 | 316 | 79.4 | 0.2 |  |
| CCc1ccc2nc(Nc3cc(Cc4ccccc4)nc(N[C@H]4CC[C@H](O)CC4)n3)sc2n1 | 63.1 | 100 | 1.58 |  |
| O[C@H]1CC[C@H](Nc2nc(Cc3ccccc3)cc(Nc3nc4cccnc4s3)n2)CC1 | 100 | 100 | 0.251 |  |
| NC(=O)C1CCN1c1nc(Cc2ccccc2)cc(Nc2cc(C3CCC3)n[nH]2)n1 (stereo not drawn) |  |  |  | Ki [5]: 79.4 nM; Ki [6]: 501 nM; Ki [7]: 15.8 nM |
| COc1ccc2nc(Nc3cc(C(F)(F)c4ccc(F)cc4)nc(N[C@H]4CC[C@H](O)CC4)n3)sc2n1 | > 20000 | 200 | 15.8 |  |
| CCc1ccc2nc(Nc3cc(Cc4ccccc4)nc(N[C@H]4CC[C@H](O)CC4)n3)sc2c1 | 398 | 100 | 0.631 | IC50 [8]: 398 nM; IC50 [9]: 631 nM; IC50 [10]: 316 nM; IC50 [11]: 251 nM; IC50 [12]: 158 nM; IC50 [13]: 200 nM; IC50 [14]: 158 nM; IC50 [15]: 79.4 nM; IC50 [16]: 39.8 nM; IC50 [17]: 3.98 nM; IC50 [5]: 398 nM; IC50 [4]: 50.1 nM; IC50 [6]: 126 nM |
| COc1ccc2nc(Nc3cc(C(F)(F)c4ccc(F)cc4)nc(N4CCC[C@H]4C(N)=O)n3)sc2c1 | > 20000 | 2510 | 3980 |  |
| O[C@H]1CC[C@H](Nc2nc(Nc3n[nH]c4ccccc34)cc(C(F)(F)c3ccc(F)cc3)n2)CC1 | 631 | 15800 | 794 |  |
| Cc1csc(Nc2cc(Cc3ccccc3)nc(N[C@H]3CC[C@H](O)CC3)n2)n1 | > 20000 | 3160 | 158 |  |
| O[C@H]1CC[C@H](Nc2nc(Cc3ccccc3)cc(Nc3nc4ccc(Cl)cc4s3)n2)CC1 | 251 | 79.4 | 0.316 |  |
| Cc1cnc(Nc2cc(Cc3ccccc3)nc(N[C@H]3CC[C@H](O)CC3)n2)s1 | 0.501 | 20 | 2 |  |
| O[C@H]1CC[C@H](Nc2nc(Nc3ccc(Oc4ccc(F)cc4)cn3)cc(C(F)(F)c3ccc(F)cc3)n2)CC1 | 5010 | 501 | 501 |  |
| N#Cc1ccc2nc(Nc3cc(Cc4ccccc4)nc(N[C@H]4CC[C@H](O)CC4)n3)sc2c1 | 79.4 | 63.1 | 0.251 |  |
| O[C@H]1CC[C@H](Nc2nc(Cc3ccccc3)cc(Nc3nc4ccccc4s3)n2)CC1 | 398 | 316 | 1 |  |
| CS(=O)(=O)N1CCOC(CNc2nc(Cc3ccccc3)cc(Nc3cc(-c4ccco4)n[nH]3)n2)C1 (stereo not drawn) |  |  |  | Ki [5]: 316 nM; Ki [6]: 501 nM; Ki [7]: 6.31 nM |
